According to ChEMBL document CHEMBL1134267 (Bioorg Med Chem Lett, 2001):

Experiments:
[1] = target: Neuronal acetylcholine receptor subunit alpha-7 (Rattus norvegicus, UniProt Q05941); assay: Affinity for alpha-7 neuronal nicotinic acetylcholine receptor subtype determined by inhibition of [3H]-MLA binding to rat brain membranes; type: cell membranes, Membrane
[2] = target: Neuronal acetylcholine receptor alpha4/beta2 (Rattus norvegicus); assay: Affinity for Nicotinic acetylcholine receptor alpha4-beta2 tested by analogue-induced inhibition of [3H]NIC binding to rat striatal membranes

Sequence of Neuronal acetylcholine receptor subunit alpha-7 (Q05941 whole entry): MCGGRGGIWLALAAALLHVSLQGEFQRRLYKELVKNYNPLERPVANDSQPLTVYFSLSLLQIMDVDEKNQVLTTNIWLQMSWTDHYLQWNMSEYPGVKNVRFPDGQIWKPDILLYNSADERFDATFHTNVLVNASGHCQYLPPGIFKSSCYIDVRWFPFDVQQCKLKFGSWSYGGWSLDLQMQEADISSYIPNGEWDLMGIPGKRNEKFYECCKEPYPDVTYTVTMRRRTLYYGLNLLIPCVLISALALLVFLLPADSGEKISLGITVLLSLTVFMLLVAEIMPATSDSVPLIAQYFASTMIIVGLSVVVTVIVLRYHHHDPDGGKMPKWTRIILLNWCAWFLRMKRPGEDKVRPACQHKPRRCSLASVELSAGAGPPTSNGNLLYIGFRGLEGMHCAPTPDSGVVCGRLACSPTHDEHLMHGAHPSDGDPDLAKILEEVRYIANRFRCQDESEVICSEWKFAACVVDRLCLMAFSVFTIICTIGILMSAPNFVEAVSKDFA

Row | Compound | Ki [1] [µM] | Ki [2] [µM]
1 | CN1CC[C@H]2CCc3c(ccc[n+]3[BH2-]C#N)[C@H]21 | > 100 | –
2 | CN1CC[C@H]2CCc3ncccc3[C@H]21 | > 100 | 12.2
3 | c1cnc2c(c1)[C@H]1NCC[C@H]1CC2 | > 100 | 10.5
4 | CN1CC[C@@H]2CCc3ccncc3[C@@H]21 | 0.59 | 0.4
5 | CN1CC[C@@H]2CCc3cc[n+]([BH2-]C#N)cc3[C@@H]21 | 0.6 | 2.4
6 | c1cncc([C@@H]2CCCN2)c1 [NORNICOTINE] | 1.34 | –
7 | CN1CCC[C@H]1c1ccc[n+]([BH2-]C#N)c1 | 0.041 | 15.2
8 | c1cc2c(cn1)[C@@H]1NCC[C@@H]1CC2 | 20.2 | –
